Where a SMILES comes first, the peptide text is derived from it. [ ]: non-standard residue; d: D form.
Columns and labels:
Elav/hTau^2N4R flies = assay: Drosophila survival assay, hTau^2N4R pan-neuronal; type: in vivo, Drosophila melanogaster; parameters: unit of the concentration uncertain
Experimental: Drosophila survival assays: Elav‐GAL4 (BDSC_458) female flies were crossed with male UAS‐Tau^2N4R flies or with gender‐matched Oregon‐R (WT) flies. Survival of 10 cohorts of 10 male flies expressing hTau^2N4R pan‐neurally and reared on a diet containing 0.08 or 0.8 µM RI‐AG03 was assessed as previously described.[49] Statistics and reproducibility: Data were collected in ≥triplicate and expressed as mean ± standard error of the mean. […] This test analyzed outcomes related to the treatment effects of peptide inhibitors against Tau aggregation at multiple time points, controlling for individual variability and ensuring that changes observed were significant. For the Drosophila survival data, a Kaplan–Meier survival curve was plotted, and a Log‐rank (Mantel–Cox) test was performed on the data using GraphPad Prism software[49] This test analyzed survival outcomes by comparing survival distribution between groups, without assuming a specific distribution for survival times. AFM data were analyzed by unpaired t‐test with Welch's correction as we made the assumption, from previous similar studies, that the two populations (Tau enriched preps isolated from flies fed or not fed RI‐AG03) had the […].

in vitro = settings: isolated enzyme trypsin
Experimental: 15% SDS PAGE gels of AG03 (100 µM) and RI-AG03 (100 µM) treated with and without equimolar
Trypsin concentration for 24-hours at 37 °C.

Tau^2N4R = molecular target: T1, Tau^2N4R (Homo sapiens, UniProt P10636); assay: ThT fluorescence end-point, heparin-induced aggregation of Tau^2N4R; type: biochemical
T1 construct: and full‐length Tau (Tau^2N4R); made in house; host or cells: E. coli BL21
T1 sequence (P10636 1-441 isoform P10636-8): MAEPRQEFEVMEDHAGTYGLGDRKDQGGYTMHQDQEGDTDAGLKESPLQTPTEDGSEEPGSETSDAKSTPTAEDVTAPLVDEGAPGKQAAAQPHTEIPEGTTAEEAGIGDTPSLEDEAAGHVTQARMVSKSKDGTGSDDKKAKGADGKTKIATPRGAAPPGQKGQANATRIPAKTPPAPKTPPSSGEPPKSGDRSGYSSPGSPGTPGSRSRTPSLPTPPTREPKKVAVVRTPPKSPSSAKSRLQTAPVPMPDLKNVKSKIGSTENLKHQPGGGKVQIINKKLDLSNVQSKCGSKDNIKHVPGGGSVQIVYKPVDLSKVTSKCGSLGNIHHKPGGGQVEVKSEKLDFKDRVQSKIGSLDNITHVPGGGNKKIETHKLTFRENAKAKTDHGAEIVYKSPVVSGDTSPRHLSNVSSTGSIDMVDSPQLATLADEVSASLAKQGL
Experimental: (§1) Fluorescence was measured (λex = 442 nm, λem = 483 nm), and data were normalized. […] The addition of inhibitor to the growth phase was controlled by adding an equivalent volume of buffer alone.
(§2) FIGURE 3 Lead peptide RI‐AG03 dose‐response and target specificity. […] (C) Concentration‐dependent inhibition of by Tau^Δ1‐250 by RI‐AG03. […] (E) Concentration‐dependent inhibition of by Tau^2N4R by RI‐AG03. […] (F) log10 scatter graph of Tau^2N4R inhibition by RI‐AG03 employing a curve fitting algorithm to calculate the IC50 at 5 µM. Experiments were conducted in triplicate and error bars were reported as standard deviation. One factor repeated measures ANOVA + Tukey post hoc statistical analysis: p > 0.05, *p ≤ 0.05, **p ≤ 0.01, ***p ≤ 0.001.

Tau^Δ1‐250 [1] = molecular target: T2, Tau^Δ1‐250 (Homo sapiens, UniProt P10636); assay: Circular dichroism of Tau^Δ1‐250 aggregation; type: biochemical; settings: 20 µM Tau^Δ1‐250, 20 µM RI‐AG03, aggregated 5 h; CD 180–260 nm
T2 construct: Tau^Δ1‐250 (an aggregate prone truncated version of full‐length Tau); made in house; host or cells: E. coli BL21(DE3)
T2 sequence (P10636 568-758, stated change not applied): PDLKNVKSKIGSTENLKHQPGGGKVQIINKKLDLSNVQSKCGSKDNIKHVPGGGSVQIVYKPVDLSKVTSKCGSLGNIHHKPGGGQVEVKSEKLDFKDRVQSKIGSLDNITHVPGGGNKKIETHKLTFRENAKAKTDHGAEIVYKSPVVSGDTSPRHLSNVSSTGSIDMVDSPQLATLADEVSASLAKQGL
Experimental: Circular dichroism (CD): CD spectra were obtained using a Chirascan plus qCD spectrometer between 180 and 260 nm with a bandwidth of 1 nm and a path length of 2 mm.
(§3) FIGURE 4 Lead peptide RI‐AG03 suppresses Tau β‐sheet content and forms of off‐pathway structures. […] 20 µM RI‐AG03 was added after 0, 24, and 72 h, of Tau aggregation (hatched gray bars), or not at all (solid gray bar representing end‐point aggregation of Tau^2N4R at 9 days). Note that Tau^2N4R aggregation plateaued at ∼72 h. […] One factor repeated measures ANOVA + Tukey post hoc statistical analysis: p > 0.05, *p ≤ 0.05, **p ≤ 0.01, ***p ≤ 0.001. (C) Negative stain TEM images using a Joel JEM‐1010 after the aggregation of 20 µM Tau^Δ1‐250 for 24 h, in the absence of RI‐AG03 (left), and in the presence of 20 µM RI‐AG03 (right). (D) The area and diameter of 200 large spherical species formed in the presence of 20 µM RI‐AG03 and recorded by TEM were quantified using iTEM software. […]

Tau^Δ1‐250 [2] = molecular target: T2, Tau^Δ1‐250; assay: TEM of aggregated Tau^Δ1‐250; type: biochemical
Experimental: Transmission electron microscopy (TEM): Tau was aggregated in similar conditions as above. Samples (10 µL) were loaded onto Formvar/Carbon 300 mesh copper grids for 3 min. The excess sample was wicked away and then negatively stained with 10 µL of filtered 2% phosphotungstic acid, pH 2, for 2 min. Grids were examined using a JEOL JEM‐1010 transmission electron microscope and were visualized and photographed at 50,000× magnification with 80.0 kV.
as §3

VQIVYK = molecular target: T3, VQIVYK (Homo sapiens, UniProt P10636); assay: ThT fluorescence, aggregation of VQIVYK peptide; type: biochemical; settings: ThT end-point 24 h; 20 µM VQIVYK, 20 µM RI‐AG03 (equimolar), 5 µM heparin, pH 7.4; alone or combined with VQIINK
T3 construct: ^306VQIVYK^311 hexapeptide (motif found in all six isoforms)
Experimental: as §1, §2

[3] = ThT fluorescence, self-assembly of peptide inhibitors without Tau; type: physicochemical; settings: ThT end-point 216 h (9 days); 20 µM peptide, PBS, 1 mM DTT, 20 µM ThT, 10 µM heparin, pH 7.4; n=3
Experimental: as §1
Experiments were conducted in triplicate and error bars were reported as standard deviation. Statistical analysis: p > 0.05, *p ≤ 0.05, **p ≤ 0.01, ***p ≤ 0.001.

For `CC[C@@H](C)[C@@H](NC(=O)[C@@H](CCCCNC(C)=O)NC(=O)[C@@H](Cc1ccc(O)cc1)NC(=O)[C@@H](CCCCN)NC(=O)[C@H]1CCCN1C(=O)CNC(=O)[C@@H](CCCNC(=N)N)NC(=O)[C@@H](CCCNC(=N)N)NC(=O)[C@@H](CCCNC(=N)N)NC(=O)[C@@H](CCCNC(=N)N)NC(=O)[C@@H](CCCNC(=N)N)NC(=O)[C@@H](CCCNC(=N)N)NC(=O)[C@@H](CCCNC(=N)N)NC(=O)[C@@H](CCCNC(=N)N)NC(C)=O)C(=O)N[C@H](CCC(N)=O)C(=O)N[C@@H](C(=O)NCC(=O)N[C@H](CCCNC(=N)N)C(N)=O)C(C)C` [RI‐AG03] (Ac-[dR][dR][dR][dR][dR][dR][dR][dR]G[dP][dK][dY][dK](Ac)[dI][dQ][dV]G[dR]-NH2), the “median survival of hTau^2N4R flies, high dose” value (Elav/hTau^2N4R flies; high‐dose (0.8 µM) in diet, pan‐neuronal hTau^2N4R male flies, untreated 26 days, n = 100, p < 0.0005) was 35 days, the “improvement of median survival of hTau^2N4R flies, high dose” value (Elav/hTau^2N4R flies; high‐dose (0.8 µM) in diet, versus untreated 26 days, n = 100) was 35% and the “median survival of hTau^2N4R flies, low dose” value (Elav/hTau^2N4R flies; low‐dose (0.08 µM) in diet, pan‐neuronal hTau^2N4R male flies, untreated 26 days, n = 100, p < 0.0005) was 33 days. The “improvement of median survival of hTau^2N4R flies, low dose” value (Elav/hTau^2N4R flies; low‐dose (0.08 µM) in diet, versus untreated 26 days, n = 100) was 27%, the metabolised at 24 h, 100 µM (in vitro) was 19% and the IC50 (Tau^2N4R) was 5 µM. For the same compound, the “ThT signal at 9 days, peptide added after 24 h of Tau^2N4R aggregation” value (Tau^2N4R; 20 µM Tau^2N4R, 20 µM RI‐AG03 added after 24 h, read at 216 h, versus negative control) was “reduction of ThT signal”, the “ThT signal at 9 days, peptide added after 72 h of Tau^2N4R aggregation” value (Tau^2N4R; 20 µM Tau^2N4R, 20 µM RI‐AG03 added after 72 h, read at 216 h, versus negative control) was “no reduction of ThT signal” and the “CD spectral changes (random coil to secondary structure incl. β‐strands)” value (Tau^Δ1‐250 [1]) was “significantly suppressed”. For the same compound, the “mean diameter of large spherical structures formed with the inhibitor” value (Tau^Δ1‐250 [2]; 20 µM Tau^Δ1‐250, 20 µM RI‐AG03, 24 h, TEM, 200 species quantified) was roughly 36 nm, the “fibrils seen by TEM” value (Tau^Δ1‐250 [2]; 20 µM Tau^Δ1‐250 with heparin 24 h, equimolar (20 µM) RI‐AG03, negative stain TEM) was “these fibrils were not observed” and the “effect on aggregation of VQIVYK peptide” value (VQIVYK) was “dramatically reduced”. For the same compound, the “self-association into β‐sheets over 216 h” value [3] was “does not self‐associate into β‐sheets”.

— article PMC11567856, “A novel peptide‐based tau aggregation inhibitor as a potential therapeutic for Alzheimer's disease and other tauopathies” (Alzheimer's & Dementia, 2024)
